Reference: patent US12552812B2, “Pyridone multiple-membered ring derivatives and use thereof” (priority 2021, dated 2026)

What was measured:
[1] = tested on: Baloxavir-resistant A/PR/8/34 (H1N1) I38T virus strain; set-up: species or system BALB/c mice; details: mouse, in vivo
[2] = tested on: Baloxavir-resistant A/PR/8/34 (H1N1) I38T influenza virus strain; type: cell-based

Compound	Survival rate (%) [1] [%]	body weight of the mice [1]	EC50 [2] [nM]
COC(=O)OCOc1c2n(ccc1=O)N([C@H]1c3ccc(F)c(F)c3C[Se]c3cccnc31)[C@@H]1COCCN1C2=O [Compound 4]	100	hardly decreased	–
O=C1c2c(O)c(=O)ccn2N([C@H]2c3ccc(F)c(F)c3C[Se]c3cccnc32)[C@@H]2COCCN12 [Compound 3]	–	–	57.5
